The values below come from PMC5502478 (ACS chemical biology, 2016).

Holding throughout (format): cell-based
Data set [1] deals with Human erythrocytes. In words: Hemolytic assay. As to conditions: tested concentrations.
Data set [2] has as its system Candida albicans ATCC 10231. As to conditions: compared to 1 and 2.
Data set [3] relates to Candida glabrata ATCC 2001. As to the kind of experiment: MIC, serial dilution antifungal assay.

For the substance pneumocandin I [Compound 5], the “hemolytic activity relative to pneumocandin B0 (overall)” value in data set [1] was “comparable to pneumocandin B0”. Besides, the “fold more potent (MIC) than wild-type fermentation products 1 and 2 against C. albicans” value in data set [2] is recorded as 8 fold. In addition, the “fold improvement of MIC against C. glabrata compared to 1” value in data set [3] is on record as 32 fold.

Regarding pneumocandin K [Compound 7], the “hemolytic activity relative to pneumocandin B0 (overall)” value in data set [1] is listed as “higher hemolytic activity than pneumocandin B0”. In data set [2], the “fold more potent (MIC) than wild-type fermentation products 1 and 2 against C. albicans” value is listed as 4 fold. Further, the “fold improvement of MIC against C. glabrata compared to 1” value in data set [3] was determined as 32 fold.
